# “Also recorded” adds a separate entry of the source.
# Columns and labels:
# [1] = system: NCI-H460 human lung cancer cells; experiment: NCI-H460 lung cancer xenograft in BALB/c nude mice: tirapazamine plus vascular disrupting agent; type: in vivo, mouse; conditions: combretastatin A4 10 mg/kg i.v. or DMXAA 20 mg/kg i.v., 3-5 min after tirapazamine 30 mg/kg i.p.
# Method: Materials and methods: Human lung cancer NCI-H460 cells were purchased from ATCC and used in this study. Cells were sub-cultured within 5 passages before inoculated into the mice. After the animals' acclimation period, approximately 1.5×10^6 NCI-H460 cells in 200 μL of serum-free media/matrigel (50:50 v/v) were injected subcutaneously to each mouse under anesthesia with 3-4% isoflurane. BALB/c nude mice, male, about 4-5 weeks and 18-20 g in weight were purchased from Shanghai SLAC Laboratory Animal Co. Ltd., China and housed in vivarium in 3-5 mice/cage by treatment group. Mice had free access to food (irradiated, Shanghai SLAC Laboratory Animal Co. Ltd. China) and water (municipal tap water filtered by Mol Ultrapure Water System).
# Mice from each group were euthanized with CO2 asphyxiation followed by cervical dislocation at day 18 after the first dose, tumors were collected, weighed, and their pictures taken. The formalin fixed tumors were used for histopathology work. After formalin fixation, the tumors were paraffin embedded to get FFPE blocks. One block was made for each tumor chunk from one mouse. The FFPE blocks were sectioned at about 4 μm thick and processed for H&E staining, histopathology examination, and quantification of tumor necrosis. Detailed results are discussed further below. […]
# [2] = system: hepatocellular carcinoma (HCC) in HBx transgenic mice; experiment: Tirapazamine or doxorubicin plus left hepatic artery ligation (HAL) in tumor-bearing HBx transgenic mice: tumor necrosis by H&E histology; type: in vivo, mouse; conditions: for necrosis of HCCs in the territory of the left HAL, Day 7 (H&E): tirapazamine 3 mg/kg (n=3) or doxorubicin 10 mg/kg (n=2) IV + left HAL 40 min; for necrosis in the HCC within the territory of HAL, Day 1 post-treatment: tirapazamine 3 mg/kg or doxorubicin 10 mg/kg IV tail vein + transient left HAL, n=1 per group, histopathology
# Method: Materials and methods: All the HBx transgenic mice were bred and followed-up in a specific pathogen-free facility; the tails of individual mice were subsequently collected for the genotyping process on weaning at 3 weeks of age. […] Transgenic mice having tumors 0.5-2 cm in diameter were used for the study.
# (§1) Treatment of tumor-bearing HBx mice with tirapazamine and hepatic artery ligation: The HBx transgenic mice were subjected to the left hepatic artery ligation for 40 min and the silk ligation was subsequently untied. During the studies on the drug effects, 0.9% saline, doxorubicin (10 mg/kg), or TPZ (3 mg/kg) were injected into the tail vein of each mouse for 7 min before the hepatic artery ligation. After completion of the injection, a midline laparotomy was performed to expose the left lobe of liver and liver hilum to dissect the left or common hepatic artery for transient ligation. All mice were anaesthetized with intraperitoneal injection of 400 mg/kg avertin (Sigma-Aldrich, St. Louis, Mo., USA) during experiments. Serial serum samples were collected for evaluating the ALT and total bilirubin by using ARKRAY Spotchem EZ Chemistry Analyzer SP-4430 (Arkray, Inc., Kyoto, Japan) within the first week. After 1 or 7 days, the liver tissues were collected for HE staining.
# Histology and morphometric analysis of tumor necrosis: For each mouse, the liver tissue containing the whole tumor and the adjacent non-tumorous region were fixed overnight in 10% formaldehyde and embedded in paraffin. The liver tissue sections (3 μm thickness) crossing the whole tumor were subjected to hematoxylin and eosin (H&E) staining for histological analysis. The percentage of necrosis in each tumor was quantified by dividing the necrotic area by the total tumor area in five cross sections covering the whole tumor, by using the ImageJ software (Version 1.46r, National Institutes of Health, Bethesda, Md., USA).
# The HBx transgenic mice spontaneously develop hepatocellular carcinoma at approximately 18 months. […] Next, the efficacy of tirapazamine in combination with HAL was investigated and compared with a commonly used chemotherapy agent, doxorubicin, in TACE. A small group was first tested to compare the effects of saline (n=1), doxorubicin (10 mg/kg, n=1) and tirapazamine (3 mg/kg, n=1) to treat HBx transgenic mice that had palpable HCC, along with transient left HAL. Mice were sacrificed 1 day after treatment with tirapazamine and transient left HAL.
# The same study was conducted to examine the histopathology changes at 7 days post treatment. The number of mice used for each group were saline (n=2), doxorubicin (10 mg/kg, n=2) and tirapazamine (3 mg/kg, n=3).
# [3] = mouse, in vivo
# Method: as §1
# hepatocellular carcinoma = experiment: Phase I dose-defining study of tirapazamine combined with trans-arterial embolization (TAE): efficacy by contrast MRI, modified RECIST; type: in vivo, human; conditions: for response on contrast enhanced MRI at 6th week after embolization: individual patients/lesions treated with tirapazamine before TAE
# Text: (§2) In order to test the clinical tolerability and efficacy of tirapazamine combined with TAE in humans, a phase I dose-defining study was initiated in US major medical centers to examine the tolerability, preliminary efficacy and determine the recommended phase 2 dose (RP2D) of tirapazamine when combined with TAE. HCC patients enrolled were Child-Pugh class A, were not surgical candidates and had up to 4 tumor lesions with no tumor lesion size greater than 10 cm and were suitable for embolization. The results of the first 12 evaluable patients were available for analysis.
# (§3) Three patients were enrolled in either cohort.
# The preliminary efficacy of the first 12 patients was analyzed and is exemplified in FIG. 4. Efficacy outcome is read by contrast […] based on modified Response Evaluation Criteria In Solid Tumors (RECIST) criteria so that only the size of the viable tumor was measured. […] Three additional patients had over 30% necrosis or partial response (PR). The overall response rate (CR+PR) was 83%.
# [4] = rat, in vivo
# [5] = Phase I dose-defining study of tirapazamine combined with TAE: tolerability; type: in vivo, human; conditions: 3 patients per cohort
# Text: as §2, §3
structure (smiles),measurement,setting,value
"Cc1ccc2c(=O)c3cccc(CC(=O)O)c3oc2c1C [DMXAA, 5,6-Dimethylxanthenone-4-acetic acid]",effect on tumor vasculature,[1],nearly immediate shutdown of the tumor vasculature
COc1ccc(/C=C\c2cc(OC)c(OC)c(OC)c2)cc1O [combretastatin A4],effect on tumor vasculature,[1],nearly immediate shutdown of the tumor vasculature
COc1cccc2c1C(=O)c1c(O)c3c(c(O)c1C2=O)C[C@@](O)(C(=O)CO)C[C@@H]3O[C@H]1C[C@H](N)[C@H](O)[C@H](C)O1 [doxorubicin],"necrosis of HCCs in the territory of the left HAL, Day 7 (H&E)",[2],Little to no pathological changes
same,"necrosis in the HCC within the territory of HAL, Day 1 post-treatment",[2],about 5%
same,total bilirubin in serum,[3],within the normal range
Nc1n[n+]([O-])c2ccccc2[n+]1[O-] [tirapazamine],overall response rate (CR+PR),hepatocellular carcinoma; first 12 evaluable patients,83%
same,patients with over 30% necrosis or partial response (PR),hepatocellular carcinoma; first 12 evaluable patients,Three
same,response on contrast enhanced MRI at 6th week after embolization,hepatocellular carcinoma,complete response (CR)
same,response on contrast enhanced MRI at 6th week after embolization,hepatocellular carcinoma; listed as Tirapazamine,two treated lesions achieved CR
same,largest diameter of untreated lesion at 6th week follow-up,"hepatocellular carcinoma; one patient, baseline 15 mm, two other lesions (26 and 10 mm) treated with tirapazamine + TAE",9 mm
same,complete response (CR) by modified RECIST,"hepatocellular carcinoma; single treatment of tirapazamine with TAE, first 12 patients",6/12
same,tolerability of IA administration followed by hepatic artery ligation,[4],well tolerated profile
same,tumor necrosis at dissection on Day 7 (pale color),"[2]; drug IV + transient HAL, FIG. 2D",evident that tumor necrosis occurred
same,"necrosis of HCCs in the territory of the left HAL, Day 7 (H&E)",[2],90-99%
same,inflammatory cell infiltration at margin of necrotic tumor,"[2]; tirapazamine 3 mg/kg IV + left HAL, day 7, FIG. 3 inserts",high degree of inflammatory cell infiltration; also recorded: very strong inflammatory infiltrates
same,"necrosis in the HCC within the territory of HAL, Day 1 post-treatment",[2],more than 99%
same,effective dose combined with transient HAL,"[2]; titration study, HBx transgenic mouse model",3 mg/kg
same,toxicities / dose limiting toxicities,[5]; intra-arterial (IA) via hepatic artery 5 and 10 mg/m^2 + TAE,no observed toxicities or dose limiting toxicities (DLT)
same,toxicities / dose limiting toxicities,[5]; systemic IV infusion 5 and 10 mg/m^2 + TAE,no observed toxicities or dose limiting toxicities (DLT)
same,total bilirubin in serum,[3],within the normal range
